Data from the NIST ThermoML archive (doi:10.1016/j.jct.2012.11.011).

Assay: xn = mol fraction of the nth substance listed
Conditions: Liquid, Vibrating tube method

CCOC(=O)OCC [diethyl carbonate] + CCCCCCCCCC
mass density [kg/m3]
Conditions | x1 = 0.0538 | x1 = 0.1716 | x1 = 0.2151 | x1 = 0.3257 | x1 = 0.5032 | x1 = 0.5482 | x1 = 0.7985 | x1 = 0.8989 | x1 = 0.9487
298.15 K, 20000 kPa | 747.7 | 766.2 | 773.1 | 793.5 | 829.7 | 839.4 | 909.6 | 945.7 | 964.8
298.15 K, 30000 kPa | 753.9 | 772.6 | 779.8 | 800.2 | 836.7 | 846.5 | 917.1 | 953.2 | 972.2
298.15 K, 40000 kPa | 759.8 | 778.7 | 785.8 | 806.5 | 843.3 | 853.1 | 924.1 | 960.2 | 979.3
308.15 K, 100 kPa | 725.5 | 743.2 | 749.9 | 769.4 | 804.4 | 813.9 | 882.5 | 917.7 | 936.6
308.15 K, 5000 kPa | 729.6 | 747.5 | 754.3 | 773.9 | 809 | 818.4 | 887.3 | 922.6 | 941.5
308.15 K, 10000 kPa | 733.6 | 751.6 | 758.4 | 778.1 | 813.5 | 823 | 892 | 927.1 | 946.2
308.15 K, 20000 kPa | 740.7 | 758.9 | 765.9 | 785.9 | 821.4 | 831 | 900.5 | 935.7 | 954.6
308.15 K, 30000 kPa | 747.5 | 765.8 | 772.7 | 792.9 | 828.9 | 838.4 | 908.2 | 943.8 | 962.7
308.15 K, 40000 kPa | 753.6 | 772.1 | 779.1 | 799.4 | 835.8 | 845.3 | 915.6 | 951.2 | 970.2
